According to US9784730B2, “Nanoparticle for targeting brain tumors and delivery of O6-benzylguanine” (University of Washington through its Center for …, priority 2013, dated 2017):

What was measured:
[1] = target: T1, O6-methylguanine-DNA methyltransferase (MGMT) (Homo sapiens, UniProt P16455); assay: MGMT activity assay in treated SF767 cells; assay type: cell-based; conditions: 20 μM free BG, 2 hr
T1 construct: MGMT activity determined in cleared supernatants of whole cell homogenates; endogenous in cells; host or cells: SF767 human GBM cell line (ATCC)
T1 sequence (P16455 1-207): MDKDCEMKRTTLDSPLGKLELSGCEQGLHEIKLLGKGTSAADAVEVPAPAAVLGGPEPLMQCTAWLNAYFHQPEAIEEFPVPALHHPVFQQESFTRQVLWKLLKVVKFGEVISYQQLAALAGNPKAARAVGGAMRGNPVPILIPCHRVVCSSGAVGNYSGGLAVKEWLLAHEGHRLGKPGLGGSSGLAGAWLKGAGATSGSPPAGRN
Description: In this experiment, MGMT activity was assayed in untreated cells, cells incubated with 20 μM free BG for 2 hr, and cells treated for either 2 hr or 24 hr with NPCP-BG equivalent to 5 μM, 10 μM or 20 μM BG. […] All treatment conditions were normalized as a percent MGMT activity of untreated SF767 cells.
The MGMT activities of protein extracts of human GBM SF767 cells were measured in a standard biochemical assay that quantifies the transfer of radioactivity from a DNA substrate containing [methyl^3H]O^6-methylguanine (specific activity, 80 Ci/mmol) to protein, as detailed previously (Silber et al., Cancer Res 1998, 58, 1068-1073). 2×10^6 SF767 cells were plated in 100 mm treated dishes and incubated with 20 μM free BG for and 2 hr or 24 hr with NPCP-BG equivalent to 5 μM, 10 μM or 20 μM BG in fully supplemented media. After incubation, cells were washed with PBS and collected and protein extracts were prepared. The protein extract supernatant was prepared by dissolution of washed SF767 pellets of known cell number with non-ionic detergents in the presence of 600 mM NaCl. Aliquots of crude homogenate were saved for DNA determination by the diphenylamine method that measures deoxyribose following degradation of DNA with heat and acid. Crude homogenate was cleared by centrifugation at 10,000×g for 30 min. […]

SF767 cells = assay: Clonogenic survival assay with TMZ; assay type: cell-based, human
Description: SF767 cells are noted for their pronounced resistance to TMZ (LD50 about 600 μM) mediated in large part by MGMT. The effect of suppression of MGMT activity by NPCP-BG on TMZ-mediated reduction in clonogenic survival of SF767 is illustrated in FIG. 6. Cells were exposed to NPCP-BG equivalent to 20 μM free drug for 2 hr followed by incubation with TMZ for 24 hr in the presence of inhibitor. Controls were treated either with 20 μM free BG or with an equivalent volume of DMSO.
Determination of proliferative survival of SF767 by clonogenic assay was performed as described previously (Blank et al., DNA Repair 2004, 3, 629-638). Briefly, 6-well plates inoculated with 2 mL of supplemented medium containing 1000 to 2000 cells were incubated overnight at 37° C. in 95%/5% air/CO2 to allow reattachment and resumption of proliferation. Cells were then incubated for 2 hrs with inhibitor-conjugated NP equivalent to 20 μM free BG prior to exposure to TMZ. Incubation was continued for 22 hr before changing cells to fresh, drug-free medium to allow formation of colonies ≧50 cells. […] Cytotoxicity was quantitated by linear regression analysis of plots of log surviving fraction v. […] Survival was determined in 4 separate experiments in which every dose was assayed in duplicate (i.e., 8 determinations per TMZ dose) in order to achieve statistical significance.

[2] = rodent models; cited from earlier work
[3] = clinical trials, BG included in TMZ regimens; cited from earlier work
brain tumors = conditions: cited from earlier work

Nc1nc(OCc2ccccc2)c2nc[nH]c2n1 [BG, O^6-benzylguanine]
Fold reduction of MGMT activity [1]: about 28 fold
MGMT activity as percent of untreated activity [1]: about 3.6%
TMZ LD50 in presence of MGMT inhibitor (SF767 cells; inhibitor equivalent to 20 μM BG for 2 hr before TMZ for 24 hr): about 15 μM
Half-life reported in literature [2]: 1.2 h
Reduction of maximum tolerated dose (MTD) of TMZ [3]: 50%

Cn1nnc2c(C(N)=O)ncn2c1=O [TMZ, temozolomide]
TMZ LD50 (dose reducing clonogenic survival to 50%) (SF767 cells; TMZ alone): about 600 μM

chlorotoxin [CTX]
Brain tumors targeted of those examined (brain tumors): 74 out of 79
